One assay concerns primed human PSCs. The assay can be described thus: Conversion of primed human PSCs to ICLCs (ICM marker expression, colony morphology). It is filed as cell-based. As to the method: One day before initiation of conversion, primed human PSCs were washed with PBS once and dissociated into single cells and plated at a density of 1,000 to 1,500 cells/cm^2 on feeder in mTeSR1 or E8 medium supplemented with 10 μM Y27632. Twenty-four hours later, culture medium was switched to 4CL medium 1. The culture medium was refreshed with the same medium every 24 hours. Colonies became round and domed-shape in 24 to 48 hours. Cells were passaged every 3 to 4 days. For passaging, cells were dissociated into single cells using TrypLE: 0.5 mM EDTA (1:1) and plated at a density of 1,000 to 1,500 cells/cm^2 on feeder (feeders were seeded on Geltrex™/Matrigel™ pre-treated plate) (FIG. 1). The ICLCs induction and maintenance can be conducted under hypoxic condition (37° C., 5% CO2, 5% O2), or normoxic condition (37° C., 5% CO2, 21% O2) (FIG. 34), preferably hypoxia condition.
Using the same procedures of example 1, except plating cells on 1% (v/v) Geltrex™ in DMEM-F12 (cat #) coated plates instead of on feeder cells.
Primed human PSCs were cultured following the same procedures of example 1. One day before initiation of the conversion, primed human PSCs were dissociated into single cells and plated 60,000 cells/well in Aggrewell™800 plates using mTeSR1 or E8 medium supplemented with 10 μM Y27632. […]

In assay [1] the test system is primed human PSCs or ICLCs. The assay can be described thus: Conversion of primed human PSCs or ICLCs to 8CLCs (8C marker expression). It is filed as cell-based. The following applies: CHIR99021 included in e4CL, or IWR1 withdrawn from e4CL. As for the experimental part:
Primed human PSCs were cultured following the same procedures of example 1. One day before initiation of the conversion, primed human PSCs were dissociated into single cells and plated at 2,000 to 3,000 cells/cm^2 on feeder using mTeSR1 or E8 medium supplemented with 10 μM Y27632. Twenty-four hours later, culture medium was changed into e4CL medium, cells were cultured in incubator at 37° C., 5% CO2, hypoxic or normoxic condition. Medium was refreshed daily. Cells were passaged every 3 to 4 days. For passaging, cells were dissociated into single cells using TrypLE: 0.5 mM EDTA (1:1), plated at 2,000 to 3,000 cells/cm^2 on feeder coated plates. Generally, cells were converted to 8CLCs in approximately one week. One day before initiation of the conversion, ICLCs were dissociated into single cells and plated at 2,000 to 3,000 cells/cm^2 on feeders using 4CL medium. Twenty-four hours later, culture medium is changed into e4CL medium. Medium was refreshed daily. Cells were converted to 8CLCs in 3 to 5 days without passaging. ICLCs were cultured following the same procedures of example 1. One day before initiation of the conversion, ICLCs were dissociated into single cells and resuspended in 4CL medium at a density of 300,000 cells/ml. The cell suspension was added into flasks for suspension culture (Greiner Bio-One, 658190). […]

Two molecules from US20230407249A1, “Media and methods for establishing and maintaining early embryo-like cells” (BGI SHENZHEN GROUP HOLDINGS CO., LIMITED, priority 2020, published 2023) can be followed below.

The structures appear in SMILES notation.

For `O=C1O[C@H]([C@@H](O)CO)C(O)=C1O` [L-ascorbic acid], in the assay with primed human PSCs (final concentration of 40 to 70 μg/ml), the “expression levels of ICM specific genes such as DNMT3L, STELLA, DPPA5, KLF17” value is on record as “potently increases”.

In the case of `Cc1c[nH]c(-c2cnc(NCCNc3ccc(C#N)cn3)nc2-c2ccc(Cl)cc2Cl)n1` [CHIR99021], the ICLC formation entry with primed human PSCs (CHIR99021 included in 4CL, or IWR1 withdrawn from 4CL) is “inhibits formation of ICLC”. Besides, in assay [1], the 8CLC formation entry is listed as “inhibits formation of 8CLC”.
